Experiment [1] has as its target T1, MRG15 (MRG domain) (Homo sapiens, UniProt Q9UBU8).
T1 construct: The MRG15 MRG domain, encompassing amino acids 155–323, was cloned into the pET28b^+-based pSMT3 vector; 6xHis-SUMO (N, cleaved yes); made in house; host or cells: E. coli BL21*
The experiment in a line: Fluorescence anisotropy competition assay: displacement of WT FAM-PALB2. It is filed as binding. The note with it: competition with WT FAM-PALB2, relative to WT. As to the method: For competition assays, mutant PALB2^597−630 peptides (Genscript Biotech, Piscataway, NJ, USA) were dissolved in DMSO and serially diluted from 10 µM to 0.6 nM in 20 µL of 25 mM HEPES pH 8.0, 1 mM TCEP, 10% DMSO, and 200 mM NaCl. A total of 40 nM MRG15 was mixed with 10 nM PALB2-FAM and incubated for 15 min at room temperature (RT). 20 µL of the MRG15 with FAM-PALB2 was then added to each well, resulting in a final concentration of […]. The total reaction volume was 40 µL. The plate was then shaken for 2 min and incubated for 15 min before the fluorescence anisotropy was measured as above. The inhibition constant Ki was calculated similarly to Kd (above).
Mutations of several residues in the MRG-binding region of PALB2 were found in breast cancer patients, including Asp616His, Pro615Ser and Pro621Thr mutations (Figure 5A,B). We analyzed the effect of these mutations on PALB2 interaction with MRG by a competition assay (Figure 5C,D). An MRG complex with 10 nM WT PALB2 peptide was formed, and the comparative affinity of mutants (Ki) was assayed by the dissociation rate of FAM-PALB2 from MRG15 upon titration by a mutant peptide. In addition, the contribution of core hydrophobic amino acids was assayed by alanine substitution. None of the peptides with a core hydrophobic amino acid substitution were able to compete with wtPALB2 binding. […] Substitution of Asp616 with histidine reduced the affinity by a factor of 2. […] Substitution of this proline in the middle of an α-helical turn may increase flexibility and result in a tighter binding of αH2 to the hydrophobic pocket of MRG.

The target of experiment [2] is T2, MRG15^155−323 (MRG domain) (Homo sapiens, UniProt Q9UBU8).
T2 construct: The MRG15 MRG domain, encompassing amino acids 155–323, was cloned into the pET28b^+-based pSMT3 vector; 6xHis-SUMO (N, cleaved yes); made in house; host or cells: E. coli BL21*
T2 sequence (Q9UBU8 194-362): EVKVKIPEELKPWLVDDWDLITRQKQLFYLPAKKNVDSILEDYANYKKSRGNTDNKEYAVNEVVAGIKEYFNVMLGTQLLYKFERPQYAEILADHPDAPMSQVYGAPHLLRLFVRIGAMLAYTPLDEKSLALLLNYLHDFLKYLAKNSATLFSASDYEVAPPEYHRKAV
The experiment in a line: Fluorescence anisotropy binding of FAM-PALB2 peptide. As to the method:
Fluorescence anisotropy binding and competition assays were performed using black 384-well plates (Corning Inc., Corning, NY, USA) and a Synergy Neo2 plate reader (BioTek, Winooski, VT, USA). Binding assays were conducted by serially diluting the MRG15 fragment from 10 µM to 0.6 nM. A 40 µL solution of 20 µM MRG was serially diluted in 20 µL of 25 mM HEPES pH8.0, 1 mM TCEP, 10% DMSO, and 200 mM NaCl. A total of 20 µL of a 20 nM FAM-PALB2^597−630 solution was then added to each well for a final reaction volume of 40 µL and a final PALB2 concentration of 10 nM. The plate was shaken for 2 min and incubated for 15 min. Fluorescence anisotropy was measured with 485/20 nm excitation and 528/20 nm emission using Gen5.0 (BioTek) software. Kd was calculated with GraphPad Prism software by fitting the data with a non-linear regression analysis using a standard four-parameter logistic equation to identify Kd. […] R^2 is determined by the Prism software by computing the sum of the squares of the distances of the points from the best-fit curve determined by a nonlinear regression model.
Proteins interact with the MRG domain through a conserved FxLP motif. […] The binding affinity of this peptide to MRG15 was measured using the polarization anisotropy method with fluorescein-labeled PALB2^597−630 peptide (FAM-PALB2, Genscript Biotech, Piscataway, NJ, USA). […]
Background: Polarisation of emitted light reports the rotation of a fluorescent probe.

Experiment [3] relates to MRG15^155−323. The experiment in a line: Ni-NTA pull-down of MRG15 by 6xHis-tagged PALB2 peptides. It is filed as binding. As to conditions: preliminary qualitative experiment; Ni-NTA agarose, SDS-PAGE. As to the method:
Ni-NTA beads (200 µL of 50% slurry) were equilibrated with Buffer B (25 mM HEPES pH 7.5, 10% glycerol, 2 mM CHAPS and 300 mM NaCl). 1 mL of PALB2 peptide at concentration 0.1 mg·mL^−1 was bound to Ni-NTA beads, and excess peptides were washed off with Buffer B (1 mL). A total of 1 mL of 0.1 mg·mL^−1 MRG15^155−323 was added to the beads and incubated for 30 min. Beads were washed 3 times with Buffer B with 20 mM imidazole. Protein complexes were eluted with Buffer B with 250 mM imidazole. MRG15^155−323 alone, mixed with Ni-NTA beads without any peptide bound, was used as control to eliminate non-specific binding. Samples were analyzed by SDS-PAGE.
Proteins interact with the MRG domain through a conserved FxLP motif. All known structures of MRG complexes reveal significant contributions to the binding of extended regions up- and downstream of the FxLP motif. Flanking regions have low sequence and structural conservation, making it challenging to predict which regions of PALB2 around the FQLP sequence motif (amino acids 612–615) are involved in the interaction. […] The binding affinity of this peptide to MRG15 was measured using the polarization anisotropy method with fluorescein-labeled PALB2^597−630 peptide (FAM-PALB2, Genscript Biotech, Piscataway, NJ, USA). […]

Where no end group is shown, it is not given here. The star is where a group is joined. 6xHis = N-terminal hexahistidine tag, N[C@@H](Cc1c[nH]cn1)C(=O)N[C@@H](Cc1c[nH]cn1)C(=O)N[C@@H](Cc1c[nH]cn1)C(=O)N[C@@H](Cc1c[nH]cn1)C(=O)N[C@@H](Cc1c[nH]cn1)C(=O)N[C@@H](Cc1c[nH]cn1)C(=O)*

T1 sequence (Q9UBU8 194-362): as above

Take “MLSLKQLLSFLSITDFQLPHEDFGPLKLEKVKSC [D616H]”: the “factor by which affinity is reduced vs WT” value in experiment [1] ('by a factor of') worked out at 2.
For “MLSLKQLLSFLSITDFQLPDEDFGTLKLEKVKSC [P621T]”, the “effect on binding affinity” value in experiment [1] is reported as “increased the binding affinity”.
Regarding “MLSLKQLLSFLSITDFQLSDEDFGPLKLEKVKSC [P615S]”, in experiment [1], the “reduction in binding affinity vs WT” value came to 5 fold.
As for “597 630: PALB2 fragment encompassing amino acids 597–630 with the N-terminal 6xHis tag; crystallized with MRG15 (PDB ID 7S4A) (6xHis-MLSLKQLLSFLSITDFQLPDEDFGPLKLEKVKSC)”, the “binding affinity to MRG domain” value in experiment [2] is “nanomolar affinity”. Also, the “complex formation with MRG15 in pull-down” value in experiment [3] is given as “sufficient for the formation of a stable complex”.

Source of the values: PMC8701324, “Structural Insight into the Mechanism of PALB2 Interaction with MRG15” (Genes, 2021).
